The text below walks through data of patent US20030134859A1 (SANKYO COMPANY, LIMITED, priority 2000, published 2003).

SMILES strings stand for the structures. Where a name gives a salt, the structure may show the parent alone. Read-outs that look alike come from different tables or passages of the source.

Usually inhibition stands for the drop in the measured response relative to a control, in per cent. Higher therefore signals a response far below the control.

Experiment [1] concerns TNF-α production. Kind of experiment: Inhibitory activity against cytokine (TNF-α) production in LPS-stimulated RAW264.7 cells. Type of experiment: cell-based, mouse. The following applies: 1 μM test compound, LPS 10 ng/mL; for inhibition at 1 µM: Mus musculus. Put shortly:
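Mouse RAW264.7 macrophages (5,000 cells/well) stimulated with 10 ng/mL LPS (final) and treated with test compound at 1 μM final for 15 h at 37 °C. Supernatant mouse TNF-α measured by ELISA; % inhibition = 100−(A−B)/(C−B)×100, using unstimulated and LPS-only controls.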

In experiment [2] the test system is leptin production. Kind of experiment: Enhancing activity for leptin production in adipocytes (ELISA). Type of experiment: cell-based, rat. The following applies: leptin concentration as % of control group; for activity at 1 µM / activity at 0.001 µM / activity at 0.01 µM / activity at 0.1 µM: Rattus norvegicus, Adipocyte, read-out: Facilitating activity to produce leptin; for activity at 0.001 µM: 1 nm; for activity at 0.01 µM: 10 nm. The method, boiled down:
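Leptin release, quantified by rat leptin ELISA, expressed as percent of 0.1% DMSO control after 24 h at 37 °C. Cells were floating adipocytes isolated by collagenase digestion of epididymal fat from male 6-week Wistar Imamichi rats; compound tested at 1 nM–1 µM final.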
(ELISA stands for enzyme-linked immunosorbent assay.)

Compound `O=C(Nc1ccc(-c2ccc([N+](=O)[O-])cc2)cc1)c1cc([N+](=O)[O-])ccc1Cl` [Example 9, N-[4-(4-Nitrophenyl)phenyl)-(2-chloro-5-nitrophenyl)carboxamide] displayed an inhibition at 1 µM in experiment [1] (15 hr) of 34%.
As for `O=C(Nc1ccc(OC(F)(F)F)cc1)c1cc([N+](=O)[O-])ccc1Cl` [Example 18, N-(4-Trifluoromethyloxyphenyl)-(2-chloro-5-nitrophenyl)carboxamide], in experiment [1] (RAW264.7, 15 h), the inhibition at 1 µM was determined as 16.8%.
For `O=C(Nc1ccc([N+](=O)[O-])cc1)c1cc([N+](=O)[O-])ccc1Cl` [Example 23, N-(4-Nitrophenyl)-(2-chloro-5-nitrophenyl)carboxamide], the activity at 1 µM in experiment [2] (1 μM, 24 hr) worked out at 110%. Further, in experiment [2] (24 hr), the activity at 0.001 µM is 134% and the activity at 0.01 µM stood at 138%. Moreover, the activity at 0.1 µM in experiment [2] (100 nm, 24 hr) is 158%. The compound further yielded an inhibition at 1 µM in experiment [1] (15 hr) of 24.4%.
Regarding `O=C(Nc1ccc([N+](=O)[O-])cn1)c1cc([N+](=O)[O-])ccc1Cl` [Example 24, N-(5-Nitropyridin-2-yl)-(2-chloro-5-nitrophenyl)carboxamide], the activity at 1 µM in experiment [2] (1 μM, 24 hr) was determined as 144%. Also, in experiment [2] (24 hr), the activity at 0.001 µM came out at 112% and the activity at 0.01 µM amounted to 121%. Also, the activity at 0.1 µM in experiment [2] (100 nm, 24 hr) is 143%. Besides, the inhibition at 1 µM in experiment [1] (15 hr) stood at 30.1%.
Take `Cc1ccc(S(=O)(=O)Nc2ccc(NC(=O)c3cc([N+](=O)[O-])ccc3Cl)cc2)cc1` [Example 32, N-[4-(4-Methylbenzene)sulfonylaminophenyl]-(2-chloro-5-nitrophenyl)carboxamide]: the “Inhibitory Activity (%) against TNF-α production” value (“Inhibitory Activity (%)” below) in experiment [1] (15 hr) is on record as 19.8%.
The compound `O=C(Nc1nc2ccc([N+](=O)[O-])cc2s1)c1cc([N+](=O)[O-])ccc1Cl` [Example 34, N-(6-Nitrobenzothiazol-2-yl)-(2-chloro-5-nitrophenyl)carboxamide] came in with an inhibition at 1 µM in experiment [1] (15 hr) of 15.2%.
For the compound `O=C(Nc1nc(-c2cccs2)cs1)c1cc([N+](=O)[O-])ccc1Cl` [Example 36, N-[4-(2-Thienyl)thiazol-2-yl)-(2-chloro-5-nitrophenyl)carboxamide], the activity at 0.1 µM in experiment [2] (24 h, 100 nm) was found to be 120%. The same compound showed an inhibition at 1 µM in experiment [1] (RAW264.7, 15 h) of 18%.
With `O=C(Nc1nc(-c2ccc3ccccc3c2)cs1)c1cc([N+](=O)[O-])ccc1Cl` [Example 42, N-[4-(2-Naphthyl)thiazol-2-yl)-(2-chloro-5-nitrophenyl)carboxamide], the activity at 1 µM in experiment [2] (24 h, 1 μM) is 127%. In experiment [1] (RAW264.7, 15 h), this compound had an inhibition at 1 µM of 18.8%.
As for `O=C(Nc1nc(-c2ccc(Cl)c(Cl)c2)cs1)c1cc([N+](=O)[O-])ccc1Cl` [Example 43, N-[4-(3,4-Dichlorophenyl)thiazol-2-yl]-(2-chloro-5-nitrophenyl)carboxamide], in experiment [2] (24 h, 1 μM), the activity at 1 µM was determined as 111%. Moreover, the activity at 0.1 µM in experiment [2] (24 h, 100 nm) is 112%. Further, in experiment [1] (RAW264.7, 15 h), the inhibition at 1 µM worked out at 17.7%.
As to `O=C(Nc1cnc2ccccc2c1)c1cc([N+](=O)[O-])ccc1Cl` [Example 55, N-(3-Quinolinyl)-(2-chloro-5-nitrophenyl)carboxamide], in experiment [2] (24 h), the activity at 0.001 µM was 116% and the activity at 0.01 µM was found to be 115%. The activity at 0.1 µM in experiment [2] (24 h, 100 nm) is 113%. For the same compound, 1 µM produced 15.3% inhibition in experiment [1] (RAW264.7, 15 h).
Take `O=C(Nc1ccc(Cl)nc1)c1cc([N+](=O)[O-])ccc1Cl` [Example 62, N-(6-Chloropyridin-3-yl)-(2-chloro-5-nitrophenyl)carboxamide]: in experiment [2] (24 h), the activity at 0.001 µM was 119% and the activity at 0.01 µM was determined as 115%. In experiment [2] (24 h, 100 nm), the activity at 0.1 µM stood at 132%. The compound further had an inhibition at 1 µM in experiment [1] (RAW264.7, 15 h) of 20.5%.
For the compound `Nc1ccc(-c2ccc(NC(=O)c3cc([N+](=O)[O-])ccc3Cl)cc2)cc1` [Example 88, N-[4-(4-Aminophenyl)phenyl]-(2-chloro-5-nitrophenyl)carboxamide mono-hydrochloride], the activity at 1 µM in experiment [2] (24 h, 1 μM) is 115%. Moreover, the activity at 0.1 µM in experiment [2] (24 h, 100 nm) worked out at 119%. 1 µM produced 28% inhibition in experiment [1] (RAW264.7, 15 h).
As to `CS(=O)(=O)Nc1ccc(-c2ccc(NC(=O)c3cc([N+](=O)[O-])ccc3Cl)cc2)cc1` [Example 93, N-[4-[4-(Methanesulfonylamino)phenyl]phenyl]-(2-chloro-5-nitrophenyl)carboxamide], the activity at 1 µM in experiment [2] (24 h, 1 μM) worked out at 114%. In addition, at 1 µM the inhibition in experiment [1] (RAW264.7, 15 h) was 15.6%.
As to `Cc1ccc(S(=O)(=O)Nc2ccc(-c3ccc(NC(=O)c4cc([N+](=O)[O-])ccc4Cl)cc3)cc2)cc1` [Example 94, N-[4-[4-(4-Toluenesulfonylamino)phenyl]phenyl]-(2-chloro-5-nitrophenyl)carboxamide], in experiment [2] (24 h, 1 μM), the activity at 1 µM came out at 116%. Further, in experiment [2] (24 h, 100 nm), the activity at 0.1 µM turned out to be 110%. The same compound displayed an inhibition at 1 µM in experiment [1] (RAW264.7, 15 h) of 34.8%.
As for `O=C(Nc1ccc(N2CCCCC2)cc1)c1cc([N+](=O)[O-])ccc1Cl` [Example 114, N-[4-(Piperidin-1-yl)phenyl]-(2-chloro-5-nitrophenyl)carboxamide], the inhibition at 1 µM in experiment [1] (RAW264.7, 15 h) came out at 16.8%.
As for `CC(=O)Nc1ccc(-c2ccc(NC(=O)c3cc([N+](=O)[O-])ccc3Cl)cc2)cc1` [Example 118, N-[4-(4-Acetylaminophenyl)phenyl]-(2-chloro-5-nitrophenyl)carboxamide], the activity at 1 µM in experiment [2] (24 h, 1 μM) was determined as 134%. Besides, in experiment [2] (24 h), the activity at 0.001 µM was found to be 114% and the activity at 0.01 µM was 115%. The activity at 0.1 µM in experiment [2] (24 h, 100 nm) came out at 127%. The same compound returned an inhibition at 1 µM in experiment [1] (RAW264.7, 15 h) of 16.4%.
With `Cc1ccc2nc(NC(=O)c3cc([N+](=O)[O-])ccc3Cl)sc2c1` [Example 141, N-(6-Methybenzothiazol-2-yl)-(2-chloro-5-nitrophenyl)carboxamide], the “Inhibitory Activity (%)” value in experiment [1] (15 hr) was determined as 15.9%.
Take `Cc1ccc(C(=O)Nc2nc3ccc(NC(=O)c4cc([N+](=O)[O-])ccc4Cl)cc3s2)cc1` [Example 149, N-[2-(4-Methylbenzoylamino)benzothiazol-6-yl]-(2-chloro-5-nitrophenyl)carboxamide]: in experiment [2] (24 h, 1 μM), the activity at 1 µM amounted to 117%. Further, in experiment [2] (24 h, 100 nm), the activity at 0.1 µM was 111%. Also, in experiment [1] (RAW264.7, 15 h), at 1 µM the inhibition was 18.8%.
Compound `CCc1ccc(S(=O)(=O)Nc2ccc(NC(=O)c3cc([N+](=O)[O-])ccc3Cl)cc2)cc1` [Example 150, N-[4-(4-Ethylbenzenesulfonylamino)phenyl]-(2-chloro-5-nitrophenyl)carboxamide] yielded an inhibition at 1 µM in experiment [1] (RAW264.7, 15 h) of 16.2%.
On the same count and under the same terms, as for `CC(C)(C)c1cc(NS(=O)(=O)c2ccc(NC(=O)c3cc([N+](=O)[O-])ccc3Cl)cc2)cc(C(C)(C)C)c1O` [Example 175, N-[4-[(3,5-di-tert-Butyl-4-hydroxyphenyl)aminosulfonyl]phenyl]-(2-chloro-5-nitrophenyl)carboxamide], the figure is 15.7%.
In the case of `CCCN(CCC)c1ccc(NC(=O)c2cc([N+](=O)[O-])ccc2Cl)cc1` [Example 182, N-[4-(N,N-Dipropylamino)phenyl]-(2-chloro-5-nitrophenyl)carboxamide], the activity at 0.01 µM in experiment [2] (24 h) was 110%. In addition, the activity at 0.1 µM in experiment [2] (24 h, 100 nm) amounted to 112%. This compound also registered an inhibition at 1 µM in experiment [1] (RAW264.7, 15 h) of 32.8%.
On the same counts, the results for `O=C(Nc1ccc(N2CCN(C(=O)c3ccccc3)CC2)cc1)c1cc([N+](=O)[O-])ccc1Cl` [Example 184, N-[4-(4-Benzoylpiperazin-1-yl)phenyl]-(2-chloro-5-nitrophenyl)carboxamide] are 122%, 123% and 15%.
Regarding `CCCCCCN(CC)c1ccc(NC(=O)c2cc([N+](=O)[O-])ccc2Cl)cc1` [Example 188, N-[4-(N-Ethyl-N-hexylamino)phenyl]-(2-chloro-55 nitrophenyl)carboxamide], the activity at 0.001 µM in experiment [2] (24 h) was 110%. In addition, the inhibition at 1 µM in experiment [1] (RAW264.7, 15 h) was determined as 24.2%.
On to `CC(C)(C)OC(=O)Nc1ccc(-c2csc(NC(=O)c3cc([N+](=O)[O-])ccc3Cl)n2)cc1` [Example 190, N-[4-(4-tert-Butoxycarbonylaminophenyl)thiazol-2-yl]-(2-chloro-5-nitrophenyl)carboxamide], for which testing at 1 µM in experiment [1] (RAW264.7, 15 h) gave an inhibition of 33.8%.
On to `Nc1ccc(-c2ccc(NC(=O)c3cc([N+](=O)[O-])ccc3Cl)cc2)cc1` [Example 192, N-[4-(4-Aminophenyl)phenyl]-(2-chloro-5-nitrophenyl)carboxamide], for which the “Facilitating activity to produce leptin” value in experiment [2] (1 μM, 24 hr) is given as 112.1%; in experiment [2] (100 nm, 24 hr), 121.7%. For the same compound, in experiment [2] (24 h), the activity at 0.01 µM stood at 122%. The “Inhibitory Activity (%)” value in experiment [1] (15 hr, 1 µM) is 27.9%.
With `CCCN(CCC)c1ccc(-c2ccc(NC(=O)c3cc([N+](=O)[O-])ccc3Cl)cc2)cc1` [Example 194, N-[4-[4-(N,N-Dipropylamino)phenyl]phenyl]-(2-chloro-5-nitrophenyl)carboxamide], the inhibition at 1 µM in experiment [1] (RAW264.7, 15 h) is 18.4%.
The same measure, in the same setting: as for `CCN(C)c1ccc(-c2ccc(NC(=O)c3cc([N+](=O)[O-])ccc3Cl)cc2)cc1` [Example 218, N-[4-[4-(N-Ethyl-N-methylamino)phenyl]phenyl]-(2-chloro-5-nitrophenyl)carboxamide], the figure is 20.3%.
